From the NIST ThermoML archive (doi:10.1021/je200195q)
Numbers after ± are expanded uncertainties.

Test: activity coefficient (dimensionless); of the first substance listed, at infinite dilution; xn = mol fraction of the nth substance listed
Details: 101 kPa, Liquid, Chromatography, x1 = 0

CCOCC [diethyl ether] + CCn1cc[n+](C)c1.CS(=O)(=O)[O-]
activity coefficient (312.55 K): 21.8 ± 1.5 | activity coefficient (322.45 K): 20.4 ± 1.4 | activity coefficient (332.45 K): 18 ± 1.2

CCCCCCCCC [nonane] + CCCCCC[n+]1ccn(C)c1.FC(F)(F)C(F)(F)[P-](F)(F)(F)(C(F)(F)C(F)(F)F)C(F)(F)C(F)(F)F
activity coefficient (312.8 K): 17.7 ± 1.2 | activity coefficient (332.85 K): 15.5 ± 1.1 | activity coefficient (354.65 K): 12.4 ± 0.85

CC(C)OC(C)C [diisopropyl ether] + CCn1cc[n+](C)c1.CS(=O)(=O)[O-]
activity coefficient (312.55 K): 84.5 ± 5.8 | activity coefficient (322.45 K): 74.2 ± 5.1 | activity coefficient (332.45 K): 67.7 ± 4.6

ClC(Cl)Cl [trichloromethane] + CCn1cc[n+](C)c1.CS(=O)(=O)[O-]
activity coefficient (312.55 K): 0.563 ± 0.04 | activity coefficient (322.45 K): 0.479 ± 0.037 | activity coefficient (332.45 K): 1.42 ± 0.093

c1ccncc1 [pyridine] + CCCCCC[n+]1ccn(C)c1.FC(F)(F)C(F)(F)[P-](F)(F)(F)(C(F)(F)C(F)(F)F)C(F)(F)C(F)(F)F
activity coefficient (312.8 K): 0.302 ± 0.031 | activity coefficient (332.85 K): 0.326 ± 0.032 | activity coefficient (354.65 K): 0.331 ± 0.032

C1COCCO1 [1,4-dioxane] + CCCCCCCCCCn1cc[n+](CCCCCCCCCC)c1C.O=S(=O)([N-]S(=O)(=O)C(F)(F)F)C(F)(F)F
activity coefficient (323.1 K): 0.463 ± 0.036 | activity coefficient (333.15 K): 0.46 ± 0.036 | activity coefficient (343.15 K): 0.453 ± 0.036

CCCCCCCCCCCC [dodecane] + CCCCn1cc[n+](C)c1.O=S(=O)([N-]S(=O)(=O)C(F)(F)C(F)(F)F)C(F)(F)C(F)(F)F
activity coefficient (322.55 K): 77.8 ± 5.3 | activity coefficient (342.75 K): 62 ± 4.2 | activity coefficient (362.65 K): 50.9 ± 3.5

CCCCCCCCCCC [undecane] + CCCCCC[n+]1ccn(C)c1.FC(F)(F)C(F)(F)[P-](F)(F)(F)(C(F)(F)C(F)(F)F)C(F)(F)C(F)(F)F
activity coefficient (312.8 K): 31 ± 2.1 | activity coefficient (332.85 K): 25.5 ± 1.7 | activity coefficient (354.65 K): 19.9 ± 1.4

CCO [ethanol] + CCCCCC[n+]1ccn(C)c1.FC(F)(F)C(F)(F)[P-](F)(F)(F)(C(F)(F)C(F)(F)F)C(F)(F)C(F)(F)F
activity coefficient (312.8 K): 2.1 ± 0.14 | activity coefficient (332.85 K): 1.69 ± 0.11 | activity coefficient (354.65 K): 1.31 ± 0.085

OCC(F)(F)F [2,2,2-trifluoroethanol] + CCCCCCCCCCn1cc[n+](CCCCCCCCCC)c1C.O=S(=O)([N-]S(=O)(=O)C(F)(F)F)C(F)(F)F
activity coefficient (323.1 K): 0.399 ± 0.034 | activity coefficient (333.15 K): 0.379 ± 0.033 | activity coefficient (343.15 K): 0.355 ± 0.032

CC1CCCCC1 [methylcyclohexane] + CCCCCCCCCCn1cc[n+](CCCCCCCCCC)c1C.O=S(=O)([N-]S(=O)(=O)C(F)(F)F)C(F)(F)F
activity coefficient (323.1 K): 1.52 ± 0.1 | activity coefficient (333.15 K): 1.48 ± 0.098 | activity coefficient (343.15 K): 1.45 ± 0.095

CCC[N+](=O)[O-] [1-nitropropane] + CCCCn1cc[n+](C)c1.O=S(=O)([N-]S(=O)(=O)C(F)(F)C(F)(F)F)C(F)(F)C(F)(F)F
activity coefficient (322.55 K): 0.769 ± 0.05 | activity coefficient (342.75 K): 0.821 ± 0.053 | activity coefficient (362.65 K): 0.756 ± 0.05

CCCCCCCCCCCCCC [tetradecane] + CCn1cc[n+](C)c1.CS(=O)(=O)[O-]
activity coefficient (312.55 K): 4070 ± 280 | activity coefficient (322.45 K): 4000 ± 280 | activity coefficient (332.45 K): 3830 ± 260

C1COCCO1 [1,4-dioxane] + CCCCCC[n+]1ccn(C)c1.FC(F)(F)C(F)(F)[P-](F)(F)(F)(C(F)(F)C(F)(F)F)C(F)(F)C(F)(F)F
activity coefficient (312.8 K): 0.273 ± 0.03 | activity coefficient (332.85 K): 0.327 ± 0.032 | activity coefficient (354.65 K): 0.339 ± 0.032

CCCCO [butan-1-ol] + CCCCCCCCCCn1cc[n+](CCCCCCCCCC)c1C.O=S(=O)([N-]S(=O)(=O)C(F)(F)F)C(F)(F)F
activity coefficient (323.1 K): 1.38 ± 0.09 | activity coefficient (333.15 K): 1.2 ± 0.077 | activity coefficient (343.15 K): 1.12 ± 0.071

C1CCCCCC1 [cycloheptane] + CCCCn1cc[n+](C)c1.O=S(=O)([N-]S(=O)(=O)C(F)(F)C(F)(F)F)C(F)(F)C(F)(F)F
activity coefficient (322.55 K): 19.8 ± 1.4 | activity coefficient (342.75 K): 35.2 ± 2.4 | activity coefficient (362.65 K): 56.5 ± 3.9

C1CCCCCC1 [cycloheptane] + CCCCCC[n+]1ccn(C)c1.FC(F)(F)C(F)(F)[P-](F)(F)(F)(C(F)(F)C(F)(F)F)C(F)(F)C(F)(F)F
activity coefficient (312.8 K): 9.01 ± 0.61 | activity coefficient (332.85 K): 13.2 ± 0.9 | activity coefficient (354.65 K): 28.7 ± 2

CCCO [propan-1-ol] + CCCCn1cc[n+](C)c1.O=S(=O)([N-]S(=O)(=O)C(F)(F)C(F)(F)F)C(F)(F)C(F)(F)F
activity coefficient (322.55 K): 1.99 ± 0.14 | activity coefficient (342.75 K): 1.62 ± 0.11 | activity coefficient (362.65 K): 1.35 ± 0.088

CCCCCCCCCCCCC [tridecane] + CCn1cc[n+](C)c1.CS(=O)(=O)[O-]
activity coefficient (312.55 K): 3380 ± 230 | activity coefficient (322.45 K): 3280 ± 230 | activity coefficient (332.45 K): 3070 ± 210

C1COCCO1 [1,4-dioxane] + CCCCn1cc[n+](C)c1.O=S(=O)([N-]S(=O)(=O)C(F)(F)C(F)(F)F)C(F)(F)C(F)(F)F
activity coefficient (322.55 K): 0.429 ± 0.035 | activity coefficient (342.75 K): 0.607 ± 0.042 | activity coefficient (362.65 K): 0.576 ± 0.041

CCCC(C)=O [pentan-2-one] + CCn1cc[n+](C)c1.CS(=O)(=O)[O-]
activity coefficient (312.55 K): 7.79 ± 0.53 | activity coefficient (322.45 K): 7.7 ± 0.53 | activity coefficient (332.45 K): 7.57 ± 0.52

CCN(CC)CC [triethylamine] + CCCCCC[n+]1ccn(C)c1.FC(F)(F)C(F)(F)[P-](F)(F)(F)(C(F)(F)C(F)(F)F)C(F)(F)C(F)(F)F
activity coefficient (312.8 K): 2.09 ± 0.14 | activity coefficient (332.85 K): 1.96 ± 0.13 | activity coefficient (354.65 K): 1.76 ± 0.12

CC#N [acetonitrile] + CCCCn1cc[n+](C)c1.O=S(=O)([N-]S(=O)(=O)C(F)(F)C(F)(F)F)C(F)(F)C(F)(F)F
activity coefficient (322.55 K): 0.528 ± 0.039 | activity coefficient (342.75 K): 0.514 ± 0.038 | activity coefficient (362.65 K): 0.504 ± 0.038

CCCCCCCCCCCCC [tridecane] + CCCCn1cc[n+](C)c1.O=S(=O)([N-]S(=O)(=O)C(F)(F)C(F)(F)F)C(F)(F)C(F)(F)F
activity coefficient (322.55 K): 111 ± 7.6 | activity coefficient (342.75 K): 78.1 ± 5.3 | activity coefficient (363.65 K): 68.9 ± 4.7

OCC(F)(F)F [2,2,2-trifluoroethanol] + CCCCn1cc[n+](C)c1.O=S(=O)([N-]S(=O)(=O)C(F)(F)C(F)(F)F)C(F)(F)C(F)(F)F
activity coefficient (322.55 K): 0.457 ± 0.036 | activity coefficient (342.75 K): 0.412 ± 0.034 | activity coefficient (362.65 K): 0.373 ± 0.033

CO [methanol] + CCCCn1cc[n+](C)c1.O=S(=O)([N-]S(=O)(=O)C(F)(F)C(F)(F)F)C(F)(F)C(F)(F)F
activity coefficient (322.55 K): 1.23 ± 0.079 | activity coefficient (342.75 K): 0.997 ± 0.062 | activity coefficient (362.65 K): 0.942 ± 0.059

CCN(CC)CC [triethylamine] + CCn1cc[n+](C)c1.CS(=O)(=O)[O-]
activity coefficient (312.55 K): 8.32 ± 0.57 | activity coefficient (322.45 K): 14.3 ± 0.98 | activity coefficient (332.45 K): 18.8 ± 1.3

CCC=O [propanal] + CCn1cc[n+](C)c1.CS(=O)(=O)[O-]
activity coefficient (312.55 K): 2.76 ± 0.19 | activity coefficient (322.45 K): 2.71 ± 0.18 | activity coefficient (332.45 K): 2.65 ± 0.18

CCCO [propan-1-ol] + CCn1cc[n+](C)c1.CS(=O)(=O)[O-]
activity coefficient (312.55 K): 0.742 ± 0.049 | activity coefficient (322.45 K): 0.734 ± 0.049 | activity coefficient (332.45 K): 0.722 ± 0.048

c1ccccc1 [benzene] + CCCCCCCCCCn1cc[n+](CCCCCCCCCC)c1C.O=S(=O)([N-]S(=O)(=O)C(F)(F)F)C(F)(F)F
activity coefficient (323.1 K): 0.429 ± 0.035 | activity coefficient (333.15 K): 0.431 ± 0.035 | activity coefficient (343.15 K): 0.434 ± 0.035

CCCCCCCC [octane] + CCCCn1cc[n+](C)c1.O=S(=O)([N-]S(=O)(=O)C(F)(F)C(F)(F)F)C(F)(F)C(F)(F)F
activity coefficient (322.55 K): 20.4 ± 1.4 | activity coefficient (342.75 K): 17.3 ± 1.2 | activity coefficient (362.65 K): 15.5 ± 1.1

C1CCCCC1 [cyclohexane] + CCCCCCCCCCn1cc[n+](CCCCCCCCCC)c1C.O=S(=O)([N-]S(=O)(=O)C(F)(F)F)C(F)(F)F
activity coefficient (323.1 K): 1.32 ± 0.085 | activity coefficient (333.15 K): 1.28 ± 0.083 | activity coefficient (343.15 K): 1.26 ± 0.081

CCCCCC [hexane] + CCCCCCCCCCn1cc[n+](CCCCCCCCCC)c1C.O=S(=O)([N-]S(=O)(=O)C(F)(F)F)C(F)(F)F
activity coefficient (323.1 K): 1.82 ± 0.12 | activity coefficient (333.15 K): 1.79 ± 0.12 | activity coefficient (343.15 K): 1.76 ± 0.12
